This experiment has as its target T1, human liver glycogen phosphorylase a (HLGPa) (Homo sapiens, UniProt P06737).
T1 construct: creating a full-length cDNA fused at the 5′ end to codons for methionine-glycine-alanine-histidine; 6xHis tag (leader Met-Gly-Ala-His6-Gly-Gly) (N); made in house; host or cells: E. coli (bacterial expression plasmid pTXK1007LTev)
T1 sequence (P06737 2-847 limits assumed): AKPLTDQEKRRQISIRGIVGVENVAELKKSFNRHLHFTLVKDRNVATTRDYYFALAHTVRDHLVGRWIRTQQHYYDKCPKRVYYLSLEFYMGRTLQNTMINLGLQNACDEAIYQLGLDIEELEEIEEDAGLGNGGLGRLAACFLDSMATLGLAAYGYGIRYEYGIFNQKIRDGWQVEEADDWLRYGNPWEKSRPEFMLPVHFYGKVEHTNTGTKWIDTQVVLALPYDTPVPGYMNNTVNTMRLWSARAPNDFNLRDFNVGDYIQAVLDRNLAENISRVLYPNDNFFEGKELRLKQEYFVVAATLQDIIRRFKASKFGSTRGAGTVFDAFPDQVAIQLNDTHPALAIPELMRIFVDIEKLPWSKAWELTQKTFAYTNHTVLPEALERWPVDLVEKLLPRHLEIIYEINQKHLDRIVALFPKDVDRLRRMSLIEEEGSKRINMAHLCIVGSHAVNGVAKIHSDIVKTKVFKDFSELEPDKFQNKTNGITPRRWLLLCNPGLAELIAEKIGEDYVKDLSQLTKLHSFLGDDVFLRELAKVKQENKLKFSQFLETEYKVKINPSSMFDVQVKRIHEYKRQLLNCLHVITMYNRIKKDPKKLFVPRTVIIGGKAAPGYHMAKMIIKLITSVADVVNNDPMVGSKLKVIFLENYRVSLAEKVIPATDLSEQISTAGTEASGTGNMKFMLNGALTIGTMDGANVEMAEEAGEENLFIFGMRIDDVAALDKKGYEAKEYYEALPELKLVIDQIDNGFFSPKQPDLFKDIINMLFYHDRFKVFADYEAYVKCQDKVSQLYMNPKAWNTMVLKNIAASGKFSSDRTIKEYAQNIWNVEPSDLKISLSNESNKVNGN
As to the kind of experiment: Human liver glycogen phosphorylase a enzymatic activity assay (coupled, fluorescent resorufin readout, with and without 10 mM glucose). Type of experiment: biochemical. The conditions noted are these: human liver glycogen phosphorylase a enzymatic activity assay.

The compound `O=C(Nc1cc2ccccc2cc1C(=O)NC(C(=O)O)C1CCOCC1)Nc1c(Cl)cc(OC(F)(F)F)cc1Cl` (centres unmarked) [Example 468, {[(3-{[({2,6-dichloro-4-[(trifluoromethyl)oxy]phenyl}amino)carbonyl]amino}-2-naphthalenyl)carbonyl]amino}(tetrahydro-2H-pyran-4-yl)acetic acid] showed an IC50 of 15 nM. For the compound `CCCc1cc(C)c(NC(=O)Nc2cc3ccccc3cc2C(=O)N[C@H](C(=O)O)C2CCCCC2)c(C)c1` [Example 470, (2S)-cyclohexyl({[3-({[(2,6-dimethyl-4-propylphenyl)amino]carbonyl}amino)-2-naphthalenyl]carbonyl}amino)ethanoic acid], the IC50 was found to be 2 nM. `C#CCc1cc(C)c(NC(=O)Nc2cc3ccccc3cc2C(=O)N[C@H](C(=O)O)C2CCCCC2)c(C)c1` [Example 471, (2S)-cyclohexyl[({3-[({[2,6-dimethyl-4-(2-propyn-1-yl)phenyl]amino}carbonyl)amino]-2-naphthalenyl}carbonyl)amino]ethanoic acid] displayed an IC50 of 3 nM. In the case of `Cc1cc(C)c(NC(=O)Nc2cc(F)ccc2C(=O)N[C@@](C)(C(=O)O)C2CCCCC2)c(C)c1` [Example 472, 2-cyclohexyl-N-{[4-fluoro-2-({[(2,4,6-trimethylphenyl)amino]carbonyl}amino)phenyl]carbonyl}-L-alanine] it was 160 nM; in that of `CCCOc1cc(C)c(NC(=O)Nc2cc3ccccc3cc2C(=O)N[C@H](C(=O)O)C2CCCCC2)c(C)c1` [Example 473, (2S)-cyclohexyl[({3-[({[2,6-dimethyl-4-(propyloxy)phenyl]amino}carbonyl)amino]-2-naphthalenyl}carbonyl)amino]ethanoic acid], 1 nM; in that of `C[C@](NC(=O)c1ccc(F)cc1NC(=O)Nc1c(Cl)cc(OC(F)(F)F)cc1Cl)(C(=O)O)C1CCCCC1` [Example 474, 2-cyclohexyl-N-[(2-{[({2,6-dichloro-4-[(trifluoromethyl)oxy]phenyl}amino)carbonyl]amino}-4-fluorophenyl)carbonyl]-L-alanine], 145 nM. Then `CCc1cc(C)c(NC(=O)Nc2cc(F)ccc2C(=O)N[C@H](C(=O)O)C2CCCCC2)c(C)c1` [Example 475, (2S)-cyclohexyl({[2-({[(4-ethyl-2,6-dimethylphenyl)amino]carbonyl}amino)-4-fluorophenyl]carbonyl}amino)ethanoic acid], with 51 nM; and `C=CCc1cc(C)c(NC(=O)Nc2cc(F)ccc2C(=O)N[C@H](C(=O)O)C2CCCCC2)c(C)c1` [Example 476, (2S)-cyclohexyl[({2-[({[2,6-dimethyl-4-(2-propen-1-yl)phenyl]amino}carbonyl)amino]-4-fluorophenyl}carbonyl)amino]ethanoic acid], with 30 nM; and `CCCc1cc(C)c(NC(=O)Nc2cc(F)ccc2C(=O)N[C@H](C(=O)O)C2CCCCC2)c(C)c1` [Example 477, (2S)-cyclohexyl({[2-({[(2,6-dimethyl-4-propylphenyl)amino]carbonyl}amino)-4-fluorophenyl]carbonyl}amino)ethanoic acid], with 8 nM. Then `CCCCCc1cc(C)c(NC(=O)Nc2cc(F)ccc2C(=O)N[C@H](C(=O)O)C2CCCCC2)c(C)c1` [Example 478, (2S)-cyclohexyl({[2-({[(2,6-dimethyl-4-pentylphenyl)amino]carbonyl}amino)-4-fluorophenyl]carbonyl}amino)ethanoic acid], with 3 nM; and `CCCc1cc(C)c(NC(=O)Nc2cc(F)ccc2C(=O)N[C@@](C)(C(=O)O)C2CCCCC2)c(C)c1` [Example 479, 2-cyclohexyl-N-{[2-({[(2,6-dimethyl-4-propylphenyl)amino]carbonyl}amino)-4-fluorophenyl]carbonyl}-L-alanine], with 4 nM; and `CCCCc1cc(C)c(NC(=O)Nc2cc(F)ccc2C(=O)N[C@H](C(=O)O)C2CCCCC2)c(C)c1` [Example 480, (2S)-({[2-({[(4-butyl-2,6-dimethylphenyl)amino]carbonyl}amino)-4-fluorophenyl]carbonyl}amino)(cyclohexyl)ethanoic acid], with 20 nM. As for `CCCc1cc(C)c(NC(=O)Nc2cc(-c3ccc(F)c(F)c3)ccc2C(=O)N[C@H](C(=O)O)[C@@H](C)OC(C)(C)C)c(C)c1` [Example 481, O-(1,1-dimethylethyl)-N-{[3-({[(2,6-dimethyl-4-propylphenyl)amino]carbonyl}amino)-3′,4′-difluoro-4-biphenylyl]carbonyl}-L-threonine], the IC50 stood at 0.4 nM. Compared with the last compound, the IC50 is about 50-fold lower. In the case of `Cc1cc(CC2CC2)cc(C)c1NC(=O)Nc1cc(F)ccc1C(=O)N[C@H](C(=O)O)C1CCCCC1` [Example 482, (2S)-cyclohexyl[({2-[({[4-(cyclopropylmethyl)-2,6-dimethylphenyl]amino}carbonyl)amino]-4-fluorophenyl}carbonyl)amino]ethanoic acid] it was 5 nM. Consider `Cc1cc(CC2CC2)cc(C)c1NC(=O)Nc1cc(-c2ccc(F)c(F)c2)ccc1C(=O)N[C@H](C(=O)O)[C@@H](C)OC(C)(C)C` [Example 483, N-({3-[({[4-(cyclopropylmethyl)-2,6-dimethylphenyl]amino}carbonyl)amino]-3′,4′-difluoro-4-biphenylyl}carbonyl)-O-(1,1-dimethylethyl)-L-threonine], for which half-maximal inhibition (IC50) required 1 nM.

`COc1ccc(-c2nc(NC(=O)Nc3c(Cl)cc(Cl)cc3Cl)c(C(=O)N[C@H](C(=O)O)C3CCCCC3)s2)cc1` [Example 484, (2S)-Cyclohexyl({[2-[4-(methyloxy)phenyl]-4-({[(2,4,6-trichlorophenyl)amino]carbonyl}amino)-1,3-thiazol-5-yl]carbonyl}amino)ethanoic acid]: inhibition was half-maximal at 5000 nM (IC50). For the compound `COc1ccc(-c2nc(C(=O)N[C@H](C(=O)O)C3CCCCC3)c(NC(=O)Nc3c(C)cccc3C(C)C)s2)cc1` [Example 486], the IC50 came to 1780 nM. With `COc1ccc(-c2nc(C(=O)N[C@H](C(=O)O)C3CCCCC3)c(NC(=O)Nc3c(Cl)cccc3Cl)s2)cc1` [Example 487, (2S)-Cyclohexyl[({5-({[(2,6-dichlorophenyl)amino]carbonyl}amino)-2-[4-(methyloxy)phenyl]-1,3-thiazol-4-yl}carbonyl)amino]ethanoic acid], the IC50 turned out to be 740 nM. Then `COc1ccc(-c2nc(C(=O)O)c(NC(=O)Nc3c(C)cc(C)cc3C)s2)cc1` [Example 488, 2-[4-(Methyloxy)phenyl]-5-({[(2,4,6-trimethylphenyl)amino]carbonyl}amino)-1,3-thiazole-4-carboxylic acid], with 8230 nM; and `COc1ccc(-c2nc(C(=O)NC3(C(=O)O)CCCCC3)c(NC(=O)Nc3c(C)cc(C)cc3C)s2)cc1` [Example 489, 1-({[2-[4-(Methyloxy)phenyl]-5-({[(2,4,6-trimethylphenyl)amino]carbonyl}amino)-1,3-thiazol-4-yl]carbonyl}amino)cyclohexanecarboxylic acid], with 34 nM.

Compound `O=C(Nc1sc(-c2ccc(Cl)cc2)nc1C(=O)N[C@H](C(=O)O)C1CCCCC1)Nc1c(Cl)cc(Cl)cc1Cl` [Example 490, (2S)-({[2-(4-Chlorophenyl)-5-({[(2,4,6-trichlorophenyl)amino]carbonyl}amino)-1,3-thiazol-4-yl]carbonyl}amino)(cyclohexyl)ethanoic acid] came in with an IC50 of 170 nM. Then `Cc1cccc(C)c1NC(=O)Nc1cc2ccccc2cc1C(=O)N(C)CC(=O)O` [Example 491, N-{[3-({[(2,6-dimethylphenyl)amino]carbonyl}amino)-2-naphthalenyl]carbonyl}-N-methylglycine], with 2110 nM; and `Cc1cccc(C)c1NC(=O)Nc1cc2ccccc2cc1C(=O)NCCCC(=O)O` [Example 492, 4-({[3-({[(2,6-dimethylphenyl)amino]carbonyl}amino)-2-naphthalenyl]carbonyl}amino)butanoic acid], with 7520 nM.

`COC(=O)CCNC(=O)c1cc2ccccc2cc1NC(=O)Nc1c(C)cc(C)cc1C` [Example 493, methyl N-{[3-({[(2,4,6-trimethylphenyl)amino]carbonyl}amino)-2-naphthalenyl]carbonyl}-beta-alaninate] came in with an IC50 of 9860 nM. Turning to `Cc1cc(C)c(NC(=O)Nc2cc3ccccc3cc2C(=O)NCCC(=O)O)c(C)c1` [Example 494, N-{[3-({[(2,4,6-trimethylphenyl)amino]carbonyl}amino)-2-naphthalenyl]carbonyl}-beta-alanine], the IC50 turned out to be 360 nM. Then `Cc1cc(C)c(NC(=O)Nc2cc3ccccc3cc2C(=O)Nc2cccc(C(=O)O)c2)c(C)c1` [Example 495, 3-({[3-({[(2,4,6-trimethylphenyl)amino]carbonyl}amino)-2-naphthalenyl]carbonyl}amino)benzoic acid], with 300 nM.

The values above are taken from US20070249670A1, “Glycogen Phosphorylase Inhibitor Compounds and Pharmaceutical Compositions Thereof” (SMITHKLINE BEECHAM CORPORATION, priority 2004, published 2007).
